# System: downregulated genes in mutant Htt-expressing striatal neurons
# Test: qRT-PCR of striatal genes in Htt-72Q primary striatal neurons
# Type: cell-based, mouse
# Conditions: Htt-72Q striatal neurons
# Protocol: Mouse primary cortical and striatal neurons from embryonic day (E) 15.5 Swiss Webster mouse fetuses (Taconic) were first plated in the minimal essential medium (MEM) containing 10% FBS, 0.45% glucose, 1 mM sodium pyruvate, 2 mM glutamine, 20 U/ml penicillin and 20 μg/ml streptomycin, for 3 h and then maintained in serum-free Neurobasal medium (Life Technologies) containing NeuroCult™ SM1 neuronal supplement ([…] Technologies), 0.5 mM glutamine and 25 μM glutamate for the first 3 d in a humidified incubator (37° C. in 5% CO2). Half of the medium was replaced with Neurobasal medium with SM1 and 0.5 mM glutamine every 3 days.
smiles,measurement,setting,value
"Nc1ncn([C@H]2C[C@H](O)[C@@H](CO)O2)c(=O)n1 [decitabine, 5-aza-2′-deoxycytidine]",mRNA levels of Kdm8 (specificity control),,unchanged
same,"expression of downregulated genes (Drd2, Ppp1r1b, Penk, Pcp4, Rasd2)","RNA 5 days after infection, vs. Htt-72Q plus vehicle",restored the expression of downregulated genes

# — patent publication US10842807B2, “Methods of treating neurodegenerative disorders comprising DNA methyltransferase inhibitors” (Washington University, priority 2016, dated 2020)
